The source of these data is patent EP1541166B1, “Preventing cell death using segments of neural thread proteins” (NYMOX CORPORATION, priority 2001, dated 2007).

The assay deals with live tissue containing AD7C-NTP. Put plainly: Prevention/inhibition of AD7C-NTP-induced necrosis of live tissue by Harlil sequences injected with AD7C-NTP into rats, histopathology. In kind it is in vivo. Conditions: injected together with AD7C-NTP 100 ng/mL-10 µg/mL, 24 hours, compared to control samples injected with AD7C-NTP alone. How it is done:
AD7C-NTP was obtained as described above in Example 1.
The Harlil sequences NTP-1, NTP-3, and NTP-7 prepared in accordance with Example 2 above were used in this example.
Recombinant AD7C-NTP samples 100 ng/mL-10 µg/mL were incubated at room temperature for 5 minutes to one hour with the aforementioned Harlil sequences and then injected into rats as described in Example 1.
Alternatively, a solution of the Harlil sequence was made up in concentrations ranging from 1 microgram/mL to 1 milligram/mL. Solutions containing the recombinant AD7C-NTP also were made up as described above, without the addition of the Harlil sequence. The animals were injected with about 100 microliters of the AD7C-NTP solution, and with about 100 microliters of the Harlil solution.
The 24 individual foci of infiltration were excised, fixed in 10% formalin, embedded in paraffin, and stained and examined by standard histopathological methods.
Similar groups of control rats were injected with (1) AD7C-NTP alone as described in Example 1, (2) bovine serum albumin in saline, (3) normal human serum, and (4) physiological saline, and examined and sacrificed as above, with the excised foci of injection treated as above.

Take “L H A R L C L A N F C G R N R V (LHARLCLANFCGRNRV) [NTP-1]”: the “reduction in tissue necrosis” value was “over 95%”.
